Experimental data from US20210130420A1, “RECOMBINANT BINDING PROTEINS TARGETING HER2 AND SERUM ALBUMIN, AND THEIR USES” (Molecular Partners AG, priority 2016, published 2021).
Where two headings read alike, the source gives them in different places.

Columns and labels:
BT474 cells = assay: BT474 cell proliferation, BrdU-labeling; type: cell-based, human; details: Homo sapiens, BT-474, read-out: cell proliferation inhibition constant IC50, BT474
Experimental: Protein #21-His and Protein #23-His, were expressed and purified as described in Example 1. Effects of the recombinant binding proteins on BT474 cell proliferation were determined by measuring DNA synthesis using BrdU-labeling (BrdU, Cell Proliferation ELISA, Roche). Briefly, 10000 BT474 cells were seeded per well in a 96 well plate in 100 ul complete medium and incubated for 24 hours. Recombinant binding proteins or controls were added for an additional 72 hours. BrdU for cell labeling was added for the last 24 hours. Labeled (proliferating) cells were detected according to the manufactures protocol. The data were analyzed using the GraphPad prism software, plotting log [c] on the x-axis against OD450-602 nm on the y-axis. Data were fitted using a non-linear regression fit (log(antagonist) vs. response—Variable slope (four parameters)) deriving IC50 values.
Protein #21 and Protein #21-His were expressed and purified as described in Example 1. Standard BrdU cell proliferation assays were performed, well-known to the person skilled in the art. Briefly, effects on cell proliferation of Protein #21-His, other compounds, or Protein #21-His in combination with other compounds, were determined by measuring DNA synthesis using BrdU-labeling (BrdU, Cell Proliferation ELISA, Roche). Briefly, 10000 cells were seeded per well in a 96 well plate in 100 μl complete medium and incubated for 24 hours. Protein #21-His and/or compounds were added for an additional 72 hours. BrdU for cell labeling was added for the last 24 hours. Labeled (proliferating) cells were detected according to the manufactures protocol. The data were analyzed using the Graph Pad prism software (log [c] vs. OD450-602 nm plot). Data were fitted using a non-linear regression fit (log(antagonist) vs. response—variable slope (four parameters)).

[1] = Pharmacokinetic analysis in mouse; type: in vivo
Experimental: The measurements shown in this example are the result of a half-life engineering effort as described in Example 11. Protein #21-His and Protein #23-His were expressed and purified as described in Example 1. The pharmacokinetic properties of the His-tagged proteins were assessed in mouse as described elsewhere (Zahnd, C., Kawe, M., Stumpp, M. T., de Pasquale, C., Tamaskovic, R., Nagy-Davidescu, G., Dreier, B., Schibli, R., Binz, H. K., Waibel, R., Plückthun, A., Cancer Res. 70, 1595-1605, 2010). […] Having SEQ ID NO: 16 present in the recombinant binding protein thus appears to be more favorable than having SEQ ID NO: 18 present.
Polypeptide linkers that link protein domains are well-known to the person skilled in the art. Gly-Ser-rich linkers are well-known from single-chain Fv antibody fragments, where they have proven to be most appropriate to link the two Fv polypeptide chains. […] Protein #26-His and Protein #27-His, were expressed and purified as described in Example 1. Pharmacokinetic analyses in mouse were performed as described in Example 8.
For the studies in this example Protein #21-His, Protein #24-His, Protein #28-His, Protein #29-His, and Protein #30-His were prepared according to Example 1. Protein #28-His was additionally PEGylated using a 40 kDa PEG moiety (NOF Sunbright GL2-400MA) by maleimid coupling of the PEG-moiety onto the free C-terminal cysteine of Protein #28-His, followed by purification to homogeneity using standard purification methods, procedures well known to the person skilled in the art. Pharmacokinetic analyses in mouse or cynomolgus monkey were performed as described in Examples 8 and 9.

[2] = Storage stability in PBS analysed by SDS-PAGE; type: physicochemical; details: for degradation upon prolonged incubation: in PBS at 10 mg/ml at 40° C.
Experimental: “Improved storage stability” in the context of the present invention means the reduction of the amounts of a degradation band, preferably the reduction of the amount of degradation products, as detected by a Coomassie-stained SDS-PAGE occurring after storage at 40° C. for 1 month at 10 mg/ml in PBS, by at least 5%, 10%, 15%, 20%, 25%, 30%, 35%, 40%, 45%, 50%, or 50%. Methods to assess storage stability by SDS-PAGE are well known to the person skilled in the art. Examples of designed ankyrin repeat domains and recombinant binding proteins with improved storage stability properties are given in Examples 2 and 3.
Protein #13-His, Protein #14-His and Protein #15-His were prepared as described in Example 1, and samples were concentrated to 10 mg/ml in PBS. Protein #14-His and Protein #15-His where then stored for 1 month at −80° C. or at 40° C. in glass vials, followed by analysis on SDS 15% PAGE. […] These findings illustrate that Protein #14-His has improved storage stability compared to Proteins #13-His and Protein #15-His.
A storage stability improvement is also observed, when testing the storage stability of Protein #21 and Protein #22 (recombinant binding proteins consisting of the amino acid sequences corresponding to SEQ ID NOs: 21 and 22, respectively). Protein #21 and Protein #22 are prepared as described in Example 1, samples are concentrated to 10 mg/ml in PBS and stored for 1 month at −80° C. in or at 40° C. in glass vials, followed by analysis on standard size-exclusion chromatography.

[3] = compound titrated alone or with Protein #21 at 2 nM
[4] = Protein #21 was titrated, Trametinib (10^−5 M), Cobimetinib (10^−5 M) or Salirasib (3*10^−5 M)

**Q.** Which IC50 (BT474 cells; [3]) does the source give for `Cc1nc(NC(=O)N2CCC[C@H]2C(N)=O)sc1-c1ccnc(C(C)(C)C(F)(F)F)c1` [Alpelisib] here?
**A.** 2540 nM

**Q.** With `Cc1c(CN2CCN(C(=O)[C@H](C)O)CC2)sc2c(N3CCOCC3)nc(-c3cnc(N)nc3)nc12` [Apitolisib] as the molecule, how does the IC50 (BT474 cells; [3]) read?
**A.** 204 nM

**Q.** Which IC50 (BT474 cells; [4]) does the source give for `O=C(c1ccc(F)c(F)c1Nc1ccc(I)cc1F)N1CC(O)([C@@H]2CCCCN2)C1` [Cobimetinib] here?
**A.** 1.02 nM

**Q.** For `CC(=O)c1c(C)c2cnc(Nc3ccc(N4CCNCC4)cn3)nc2n(C2CCCC2)c1=O` [Palbociclib], which IC50 (BT474 cells; [3]) is on record?
**A.** 2600 nM

**Q.** Which IC50 (BT474 cells; [4]) does the source give for `CC(C)=CCC/C(C)=C/CC/C(C)=C/CSc1ccccc1C(=O)O` [Salirasib] here?
**A.** 0.94 nM

**Q.** Which IC50 (BT474 cells; [3]) does the source give for `Cc1nc(-c2cn3c(n2)-c2ccc(-c4cnn(C(C)(C)C(N)=O)c4)cc2OCC3)n(C(C)C)n1` [Taselisib] here?
**A.** 105 nM

**Q.** With `CC(=O)Nc1cccc(-n2c(=O)n(C3CC3)c(=O)c3c(Nc4ccc(I)cc4F)n(C)c(=O)c(C)c32)c1` [Trametinib] as the molecule, how does the IC50 (BT474 cells; [4]) read?
**A.** 1.04 nM

B1: Protein #30-His: SEQ ID NO: 30 with a His-tag (SEQ ID NO: 1) fused to its N terminus (protein)
chain: MRGSHHHHHHGSDLGKKLLEAARAGQDDEVRILMANGADVNAKDYFSHTPLHLAARNGHLKIVEVLLKAGADVNAKDFAGKTPLHLAANDGHLEIVEVLLKHGADVNAQDIFGKTPADIAADAGHEDIAEVLQKAAGGGGSGGGGSGGGGSGGGGSGSDLGKKLLEAARAGQDDEVRILMANGADVNAKDYFSHTPLHLAARNGHLKIVEVLLKAGADVNAKDFAGKTPLHLAANDGHLEIVEVLLKHGADVNAQDIFGKTPADIAADAGHEDIAEVLQKAAGGGGSGGGGSGGGGSGGGGSGSDLGAKLLSDLGVKLLWAAARGQDDEVRILLAAGADVNAKDFQGITPLHIAAQSGHLEIVEVLLKAGADVNAKDVTGDTPLHLAAQHGHLVIVEVLLKAGADVNAQDERGWTPADLAADWGHEDIAEVLQKAAGGGGSGGGGSGSDLGKKLLEAARAGQDDEVRILMANGADVNAKDEYGLTPLYLATAHGHLEIVEVLLKNGADVNAVDAIGFTPLHLAAFIGHLEIAEVLLKHGADVNAQDKFGKTAFDISIGNGNEDLAEILQKAA
modifications: His-tag; Protein comprising four designed ankyrin repeat domains
**Q.** Which “mouse pharmacokinetic profile, two versus one serum albumin binding domain” value ([1]; Protein #30-His compared to Protein #29-His, FIG. 5B) does the source give for B1 here?
**A.** benefit of having two designed ankyrin repeat domains with binding specificity for serum albumin

B2: Protein #12-His: SEQ ID NO: 12 with a His-tag; designed ankyrin repeat domain with binding specificity for serum albumin (WO2012/069654) (protein)
chain: GSDLGKKLLEAARAGQDDEVRILLKAGADVNAKDYFSHTPLHLAARNGHLKIVEVLLKAGADVNAKDFAGKTPLHLAANDGHLEIVEVLLKAGADVNAQDIFGKTPADIAADAGHEDIAEVLQKAA
modifications: His-tag; Designed ankyrin repeat domain
**Q.** With B2 as the molecule, how does the “degradation upon prolonged incubation” value [2] read?
**A.** degrade

B3: Protein #15-His: SEQ ID NO: 15 with a His-tag; designed ankyrin repeat domain with binding specificity for serum albumin (WO2012/069654) (protein)
chain: GSDLGKKLLEAARAGQDDEVRILMANGADVNAKDYFSHTPLHLAARNGHLKIVEVLLKAGADVNAKDFAGKTPLHLAANDGHLEIVEVLLKHGADVNAQDIFGKTPADIAADAGHEDIAEVLQKAA
modifications: His-tag; Designed ankyrin repeat domain
**Q.** Which “stability upon storage at −80° C.” value ([2]; 10 mg/ml in PBS, 1 month at −80° C., SDS 15% PAGE) does the source give for B3 here?
**A.** equivalent stability

**Q.** What about the “degradation upon prolonged incubation” value [2] of the same molecule?
**A.** degrade

B4: Protein #26-His: SEQ ID NO: 26 with a His-tag (SEQ ID NO: 1) fused to its N terminus (protein)
chain: MRGSHHHHHHGSDLGKKLLEAARAGQDDEVRILMANGADVNAKDYFSHTPLHLAARNGHLKIVEVLLKAGADVNAKDFAGKTPLHLAANDGHLEIVEVLLKHGADVNAQDIFGKTPADIAADAGHEDIAEVLQKAAGGGGSGGGGSGGGGSGGGGSGSDLGAKLLSDLGVKLLWAAARGQDDEVRILLAAGADVNAKDFQGITPLHIAAQSGHLEIVEVLLKAGADVNAKDVTGDTPLHLAAQHGHLVIVEVLLKAGADVNAQDERGWTPADLAADWGHEDIAEVLQKAAGGGGSGGGGSGSDLGKKLLEAARAGQDDEVRILMANGADVNAKDEYGLTPLYLATAHGHLEIVEVLLKNGADVNAVDAIGFTPLHLAAFIGHLEIAEVLLKHGADVNAQDKFGKTAFDISIGNGNEDLAEILQKAAGGGGSGGGGSGGGGSGGGGSGSDLGKKLLEAARAGQDDEVRILMANGADVNAKDYFSHTPLHLAARNGHLKIVEVLLKAGADVNAKDFAGKTPLHLAANDGHLEIVEVLLKHGADVNAQDIFGKTPADIAADAGHEDIAEVLQKAA
modifications: His-tag; Protein comprising four designed ankyrin repeat domains
**Q.** Which “injected dose remaining 48 hours after intravenous injection” value [1] does the source give for B4 here?
**A.** 5.3%

B5: Protein #27-His: SEQ ID NO: 27 with a His-tag (SEQ ID NO: 1) fused to its N terminus (protein)
chain: MRGSHHHHHHGSDLGKKLLEAARAGQDDEVRILMANGADVNAKDYFSHTPLHLAARNGHLKIVEVLLKAGADVNAKDFAGKTPLHLAANDGHLEIVEVLLKHGADVNAQDIFGKTPADIAADAGHEDIAEVLQKAAGSPTPTPTTPTPTPTTPTPTPTGSDLGAKLLSDLGVKLLWAAARGQDDEVRILLAAGADVNAKDFQGITPLHIAAQSGHLEIVEVLLKAGADVNAKDVTGDTPLHLAAQHGHLVIVEVLLKAGADVNAQDERGWTPADLAADWGHEDIAEVLQKAAGSPTPTPTTPTPTPTTPTPTPTGSDLGKKLLEAARAGQDDEVRILMANGADVNAKDEYGLTPLYLATAHGHLEIVEVLLKNGADVNAVDAIGFTPLHLAAFIGHLEIAEVLLKHGADVNAQDKFGKTAFDISIGNGNEDLAEILQKAAGSPTPTPTTPTPTPTTPTPTPTGSDLGKKLLEAARAGQDDEVRILMANGADVNAKDYFSHTPLHLAARNGHLKIVEVLLKAGADVNAKDFAGKTPLHLAANDGHLEIVEVLLKHGADVNAQDIFGKTPADIAADAGHEDIAEVLQKAA
modifications: His-tag; Protein comprising four designed ankyrin repeat domains
**Q.** For B5, which “injected dose remaining 48 hours after intravenous injection” value [1] is on record?
**A.** 7%

**Q.** What about the “terminal half-life, comparison” value [1] of the same molecule?
**A.** longer terminal half-life than Protein #26-His
